MIC and IC50 data for one molecule are collected here from patent publication US20250011300A1, “PIPERAZINYLSULFONYLARYL COMPOUNDS FOR TREATMENT OF BACTERIAL INFECTIONS” (Hoffmann-La Roche Inc., priority 2021, published 2025).

For orientation: MIC means the least concentration at which growth counts as inhibited. As usually defined, the IC50 is the concentration needed to halve the response being measured. Lower therefore signals greater potency in that assay.

The subject of test [1] is K. pneumonia (ATCC 43816). The experiment in a line: Minimal Inhibitory Concentration (MIC) assay, K. pneumonia. The test is classed as cell-based. As to conditions: Klebsiella pneumoniae; K. pneumoniae ATCC43816, CAMHB, 20 hours at 35° C.; read-out: MIC K. pneumoniae ATCC43816. In outline: (§1)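 Broth microdilution in cation-adjusted Mueller Hinton broth, inoculum 5×10^5 CFU/mL, compounds 2-fold serially diluted from 10 mM DMSO stocks. Plates incubated 20 hours at 35° C in ambient air; MIC (μg/mL) is the lowest concentration preventing visible growth.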

The target in test [2] is Escherichia coli LpxH (UDP-2,3-diacylglucosamine hydrolase) (Escherichia coli (strain K12), UniProt P43341). Nature of the test: 50% Inhibitory Concentration (IC50) to LpxH, UMP/CMP-Glo Glycosyltransferase Assay kit. The test is classed as biochemical. The gist of the method:
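LpxH hydrolysis of UDP-2,3-diacylglucosamine to lipid X and UMP; UMP produced is converted to ATP and quantified by luciferase luminescence (UMP/CMP-Glo). Inhibition taken from reduced light output.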

Test [3] relates to E. coli (ATCC 25922). Nature of the test: Minimal Inhibitory Concentration (MIC) assay, E. coli. The test is classed as cell-based. As to conditions: Escherichia coli, ATCC25922; E. coli ATCC 25922, CAMHB, 20 hours at 35° C.; read-out: MIC E. coli ATCC 25922. In outline: as §1

Values after ≈ are worked out from the molar mass of the structure shown.

Sequence of Escherichia coli LpxH (UDP-2,3-diacylglucosamine hydrolase) (P43341 whole entry): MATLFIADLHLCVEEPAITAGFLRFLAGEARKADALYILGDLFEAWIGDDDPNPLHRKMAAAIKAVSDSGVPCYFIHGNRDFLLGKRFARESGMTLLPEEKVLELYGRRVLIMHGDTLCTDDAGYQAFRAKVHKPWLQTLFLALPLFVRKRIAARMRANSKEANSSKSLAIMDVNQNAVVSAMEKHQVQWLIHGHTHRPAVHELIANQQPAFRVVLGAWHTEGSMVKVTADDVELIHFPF

For the molecule `NC(=O)[C@H]1CC[C@H](C(F)(F)c2cc(Cl)nc(N3CCN(S(=O)(=O)c4ccc(N5C[C@H](N)CC5=O)cc4)CC3)c2)CC1` [Example 120, Trans-4-[[2-[4-[4-[(4R)-4-amino-2-oxo-pyrrolidin-1-yl]phenyl]sulfonylpiperazin-1-yl]-6-chloro-4-pyridyl]-difluoro-methyl]cyclohexanecarboxamide], the values for the minimum inhibitory concentration (MIC) in test [1] and in test [3] were 0.48 µg/mL (≈ 0.785 µM) and 0.96 µg/mL (≈ 1.57 µM), respectively. Besides, the 50% inhibitory concentration (IC50) in test [2] is under 3.27 nM.
